In the supplement of paper PMC10307832:

Legend:
Assay in all cases: relative viability (nuclei count vs DMSO), 5 days (fraction); higher = more cells survive
EMC-BAC-2 = test system: EMC-BAC-2
Summary of the method: (§1)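 Values are medians from duplicate plates. Each reflects relative viability, defined as the nuclei count of treated wells over that of vehicle wells. Lung cancer cell lines in 1536-well plates were pin-tool dosed one day after seeding with one drug alone or with a fixed anchor-drug dose plus five library-drug doses (not always all listed) in √10 steps, then fixed, stained and imaged at 4× after 5 days.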

LU99A = test system: LU99A
Summary of the method: as §1

SW 1573 = test system: SW 1573
Summary of the method: as §1

HCC-827 = test system: HCC-827
Summary of the method: as §1

PC-14 = test system: PC-14
Summary of the method: as §1

LCLC-103H = test system: LCLC-103H
Summary of the method: as §1

NCI-H2126 = test system: NCI-H2126
Summary of the method: as §1

NCI-H2342 = test system: NCI-H2342
Summary of the method: as §1

SK-LU-1 = test system: SK-LU-1
Summary of the method: as §1

NCI-H1666 = test system: NCI-H1666
Summary of the method: as §1

HCC-78 = test system: HCC-78
Summary of the method: as §1

LXF-289 = test system: LXF-289
Summary of the method: as §1

EPLC-272H = test system: EPLC-272H
Summary of the method: as §1

ChaGo-K-1 = test system: ChaGo-K-1
Summary of the method: as §1

EKVX = test system: EKVX
Summary of the method: as §1

NCI-H322M = test system: NCI-H322M
Summary of the method: as §1

LK-2 = test system: LK-2
Summary of the method: as §1

NCI-H1975 = test system: NCI-H1975
Summary of the method: as §1

NCI-H1563 = test system: NCI-H1563
Summary of the method: as §1

NCI-H23 = test system: NCI-H23
Summary of the method: as §1

RERF-LC-KJ = test system: RERF-LC-KJ
Summary of the method: as §1

NCI-H2405 = test system: NCI-H2405
Summary of the method: as §1

SW 900 = test system: SW 900
Summary of the method: as §1

Work on CCN(CC)CCCCNc1ncc2cc(-c3cc(OC)cc(OC)c3)c(NC(=O)NC(C)(C)C)nc2n1 + Cc1nc(Nc2ncc(C(=O)Nc3c(C)cccc3Cl)s2)cc(N2CCN(CCO)CC2)n1 [Dasatinib] (partner 0.075 µM) yielded a relative viability (EMC-BAC-2; first compound 0.01 µM) of 0.189, a relative viability (EMC-BAC-2; first compound 0.03162 µM) of 0.359 and a relative viability (EMC-BAC-2; first compound 0.1 µM) of 0.304. It also gave a relative viability (EMC-BAC-2; first compound 0.3162 µM) of 0.348, a relative viability (EMC-BAC-2; first compound 1 µM) of 0.3 and a relative viability (LU99A; first compound 0.01 µM) of 0.508. It also gave a relative viability (LU99A; first compound 0.03162 µM) of 0.611, a relative viability (LU99A; first compound 0.1 µM) of 0.712 and a relative viability (LU99A; first compound 0.3162 µM) of 0.499. The relative viability (LU99A; first compound 1 µM) was 0.445, the relative viability (SW 1573; first compound 0.01 µM) was 0.355 and the relative viability (SW 1573; first compound 0.03162 µM) was 0.537. For the same compound, the relative viability (SW 1573; first compound 0.1 µM) was 0.457, the relative viability (SW 1573; first compound 0.3162 µM) was 0.482 and the relative viability (SW 1573; first compound 1 µM) was 0.326. For the same compound, the relative viability (HCC-827; first compound 0.01 µM) was 0.338, the relative viability (HCC-827; first compound 0.03162 µM) was 0.245 and the relative viability (HCC-827; first compound 0.1 µM) was 0.352. It also gave a relative viability (HCC-827; first compound 0.3162 µM) of 0.335, a relative viability (HCC-827; first compound 1 µM) of 0.299 and a relative viability (PC-14; first compound 0.01 µM) of 0.263. For the same compound, the relative viability (PC-14; first compound 0.03162 µM) was 0.268, the relative viability (PC-14; first compound 0.1 µM) was 0.276 and the relative viability (PC-14; first compound 0.3162 µM) was 0.264. The relative viability (PC-14; first compound 1 µM) was 0.162, the relative viability (LCLC-103H; first compound 0.01 µM) was 0.424 and the relative viability (LCLC-103H; first compound 0.03162 µM) was 0.623. The relative viability (LCLC-103H; first compound 0.1 µM) was 0.596, the relative viability (LCLC-103H; first compound 0.3162 µM) was 0.554 and the relative viability (LCLC-103H; first compound 1 µM) was 0.331. The relative viability (NCI-H2126; first compound 0.01 µM) was 0.586, the relative viability (NCI-H2126; first compound 0.03162 µM) was 0.603 and the relative viability (NCI-H2126; first compound 0.1 µM) was 0.648. For the same compound, the relative viability (NCI-H2126; first compound 0.3162 µM) was 0.77, the relative viability (NCI-H2126; first compound 1 µM) was 0.53 and the relative viability (NCI-H2342; first compound 0.01 µM) was 0.296. The relative viability (NCI-H2342; first compound 0.03162 µM) was 0.345, the relative viability (NCI-H2342; first compound 0.1 µM) was 0.321 and the relative viability (NCI-H2342; first compound 0.3162 µM) was 0.332. The relative viability (NCI-H2342; first compound 1 µM) was 0.31, the relative viability (SK-LU-1; first compound 0.01 µM) was 0.158 and the relative viability (SK-LU-1; first compound 0.03162 µM) was 0.163. The relative viability (SK-LU-1; first compound 0.1 µM) was 0.177, the relative viability (SK-LU-1; first compound 0.3162 µM) was 0.194 and the relative viability (SK-LU-1; first compound 1 µM) was 0.13. The relative viability (NCI-H1666; first compound 0.01 µM) was 0.824, the relative viability (NCI-H1666; first compound 0.03162 µM) was 0.757 and the relative viability (NCI-H1666; first compound 0.1 µM) was 0.942. For the same compound, the relative viability (NCI-H1666; first compound 0.3162 µM) was 0.884, the relative viability (NCI-H1666; first compound 1 µM) was 0.639 and the relative viability (HCC-78; first compound 0.01 µM) was 0.46. For the same compound, the relative viability (HCC-78; first compound 0.03162 µM) was 0.361, the relative viability (HCC-78; first compound 0.1 µM) was 0.493 and the relative viability (HCC-78; first compound 0.3162 µM) was 0.421. It also gave a relative viability (HCC-78; first compound 1 µM) of 0.364, a relative viability (LXF-289; first compound 0.01 µM) of 0.209 and a relative viability (LXF-289; first compound 0.03162 µM) of 0.249. It also gave a relative viability (LXF-289; first compound 0.1 µM) of 0.266, a relative viability (LXF-289; first compound 0.3162 µM) of 0.167 and a relative viability (LXF-289; first compound 1 µM) of 0.0987. It also gave a relative viability (EPLC-272H; first compound 0.01 µM) of 0.379, a relative viability (EPLC-272H; first compound 0.03162 µM) of 1.08 and a relative viability (EPLC-272H; first compound 0.1 µM) of 0.322. The relative viability (EPLC-272H; first compound 0.3162 µM) was 0.294, the relative viability (EPLC-272H; first compound 1 µM) was 0.241 and the relative viability (ChaGo-K-1; first compound 0.01 µM) was 0.584. For the same compound, the relative viability (ChaGo-K-1; first compound 0.03162 µM) was 0.602, the relative viability (ChaGo-K-1; first compound 0.1 µM) was 0.655 and the relative viability (ChaGo-K-1; first compound 0.3162 µM) was 0.643. For the same compound, the relative viability (ChaGo-K-1; first compound 1 µM) was 0.514, the relative viability (EKVX; first compound 0.01 µM) was 0.547 and the relative viability (EKVX; first compound 0.03162 µM) was 0.604. The relative viability (EKVX; first compound 0.1 µM) was 0.57, the relative viability (EKVX; first compound 0.3162 µM) was 0.563 and the relative viability (EKVX; first compound 1 µM) was 0.349. It also gave a relative viability (NCI-H322M; first compound 0.01 µM) of 0.242, a relative viability (NCI-H322M; first compound 0.03162 µM) of 0.246 and a relative viability (NCI-H322M; first compound 0.1 µM) of 0.244. It also gave a relative viability (NCI-H322M; first compound 0.3162 µM) of 0.257, a relative viability (NCI-H322M; first compound 1 µM) of 0.237 and a relative viability (LK-2; first compound 0.01 µM) of 0.29. It also gave a relative viability (LK-2; first compound 0.03162 µM) of 0.267, a relative viability (LK-2; first compound 0.1 µM) of 0.254 and a relative viability (LK-2; first compound 0.3162 µM) of 0.188. It also gave a relative viability (LK-2; first compound 1 µM) of 0.212, a relative viability (NCI-H1975; first compound 0.01 µM) of 0.369 and a relative viability (NCI-H1975; first compound 0.03162 µM) of 0.403. The relative viability (NCI-H1975; first compound 0.1 µM) was 0.458, the relative viability (NCI-H1975; first compound 0.3162 µM) was 0.452 and the relative viability (NCI-H1975; first compound 1 µM) was 0.313. It also gave a relative viability (NCI-H1563; first compound 0.01 µM) of 0.477, a relative viability (NCI-H1563; first compound 0.03162 µM) of 0.412 and a relative viability (NCI-H1563; first compound 0.1 µM) of 0.474. For the same compound, the relative viability (NCI-H1563; first compound 0.3162 µM) was 0.478, the relative viability (NCI-H1563; first compound 1 µM) was 0.503 and the relative viability (NCI-H23; first compound 0.01 µM) was 0.795. The relative viability (NCI-H23; first compound 0.03162 µM) was 1, the relative viability (NCI-H23; first compound 0.1 µM) was 0.904 and the relative viability (NCI-H23; first compound 0.3162 µM) was 0.925. The relative viability (NCI-H23; first compound 1 µM) was 0.878, the relative viability (RERF-LC-KJ; first compound 0.01 µM) was 0.783 and the relative viability (RERF-LC-KJ; first compound 0.03162 µM) was 1. It also gave a relative viability (RERF-LC-KJ; first compound 0.1 µM) of 0.843, a relative viability (RERF-LC-KJ; first compound 0.3162 µM) of 0.947 and a relative viability (RERF-LC-KJ; first compound 1 µM) of 0.738. For the same compound, the relative viability (NCI-H2405; first compound 0.01 µM) was 0.193, the relative viability (NCI-H2405; first compound 0.03162 µM) was 0.202 and the relative viability (NCI-H2405; first compound 0.1 µM) was 0.466. It also gave a relative viability (NCI-H2405; first compound 0.3162 µM) of 0.205, a relative viability (NCI-H2405; first compound 1 µM) of 0.186 and a relative viability (SW 900; first compound 0.01 µM) of 0.346. The relative viability (SW 900; first compound 0.03162 µM) was 0.673, the relative viability (SW 900; first compound 0.3162 µM) was 0.345 and the relative viability (SW 900; first compound 1 µM) was 0.268.
